# Assay results reported in ChEMBL document CHEMBL1139788, “Potent, nonsteroidal selective androgen receptor modulators (SARMs) based on 8H-[1,4]oxazino[2,3-f]quinolin-8-ones” (Bioorg Med Chem Lett, 2007).
# Activity calls are given as the source filed them. No cut-off for these calls is given here.
# Tests used:
# [1] = target: T1, Androgen receptor (Homo sapiens, UniProt P10275)
# T1 sequence (P10275 whole entry): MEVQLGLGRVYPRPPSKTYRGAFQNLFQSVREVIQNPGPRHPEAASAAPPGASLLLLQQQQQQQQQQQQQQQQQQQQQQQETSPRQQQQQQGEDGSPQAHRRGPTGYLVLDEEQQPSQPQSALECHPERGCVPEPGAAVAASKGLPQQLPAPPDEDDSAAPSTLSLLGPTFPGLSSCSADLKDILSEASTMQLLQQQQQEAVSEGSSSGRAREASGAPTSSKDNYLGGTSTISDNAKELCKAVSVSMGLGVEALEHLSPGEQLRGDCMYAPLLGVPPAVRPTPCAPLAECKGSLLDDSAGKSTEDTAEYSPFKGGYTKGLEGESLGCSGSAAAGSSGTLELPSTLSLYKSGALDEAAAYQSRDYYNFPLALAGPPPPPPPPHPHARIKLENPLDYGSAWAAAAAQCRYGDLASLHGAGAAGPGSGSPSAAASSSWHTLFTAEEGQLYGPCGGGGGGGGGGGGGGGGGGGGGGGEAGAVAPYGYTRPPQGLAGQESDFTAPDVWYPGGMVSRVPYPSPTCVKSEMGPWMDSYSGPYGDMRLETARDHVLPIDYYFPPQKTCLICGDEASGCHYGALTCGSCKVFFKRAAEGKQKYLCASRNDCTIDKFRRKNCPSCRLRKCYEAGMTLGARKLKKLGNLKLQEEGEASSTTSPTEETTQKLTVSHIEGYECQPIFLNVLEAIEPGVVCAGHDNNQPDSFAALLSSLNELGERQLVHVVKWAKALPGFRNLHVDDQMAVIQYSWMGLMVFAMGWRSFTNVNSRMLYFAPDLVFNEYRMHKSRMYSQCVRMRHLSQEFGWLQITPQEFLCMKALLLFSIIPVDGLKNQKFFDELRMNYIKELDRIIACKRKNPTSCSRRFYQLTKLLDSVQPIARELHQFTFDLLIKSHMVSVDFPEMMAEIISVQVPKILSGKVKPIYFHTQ
# Description: Agonist activity at human androgen receptor expressed in CV1 cells by transcriptional activation assay
# [2] = target: T1, Androgen receptor; remark: listed apart in the source
# Description: Antagonist activity at human androgen receptor expressed in CV1 cells by transcriptional activation assay
# [3] = target: T2, Progesterone receptor (Homo sapiens) (UniProt P06401); assay: Antagonist activity at progesterone receptor by transactivation assay; type: functional
# T2 sequence (whole entry): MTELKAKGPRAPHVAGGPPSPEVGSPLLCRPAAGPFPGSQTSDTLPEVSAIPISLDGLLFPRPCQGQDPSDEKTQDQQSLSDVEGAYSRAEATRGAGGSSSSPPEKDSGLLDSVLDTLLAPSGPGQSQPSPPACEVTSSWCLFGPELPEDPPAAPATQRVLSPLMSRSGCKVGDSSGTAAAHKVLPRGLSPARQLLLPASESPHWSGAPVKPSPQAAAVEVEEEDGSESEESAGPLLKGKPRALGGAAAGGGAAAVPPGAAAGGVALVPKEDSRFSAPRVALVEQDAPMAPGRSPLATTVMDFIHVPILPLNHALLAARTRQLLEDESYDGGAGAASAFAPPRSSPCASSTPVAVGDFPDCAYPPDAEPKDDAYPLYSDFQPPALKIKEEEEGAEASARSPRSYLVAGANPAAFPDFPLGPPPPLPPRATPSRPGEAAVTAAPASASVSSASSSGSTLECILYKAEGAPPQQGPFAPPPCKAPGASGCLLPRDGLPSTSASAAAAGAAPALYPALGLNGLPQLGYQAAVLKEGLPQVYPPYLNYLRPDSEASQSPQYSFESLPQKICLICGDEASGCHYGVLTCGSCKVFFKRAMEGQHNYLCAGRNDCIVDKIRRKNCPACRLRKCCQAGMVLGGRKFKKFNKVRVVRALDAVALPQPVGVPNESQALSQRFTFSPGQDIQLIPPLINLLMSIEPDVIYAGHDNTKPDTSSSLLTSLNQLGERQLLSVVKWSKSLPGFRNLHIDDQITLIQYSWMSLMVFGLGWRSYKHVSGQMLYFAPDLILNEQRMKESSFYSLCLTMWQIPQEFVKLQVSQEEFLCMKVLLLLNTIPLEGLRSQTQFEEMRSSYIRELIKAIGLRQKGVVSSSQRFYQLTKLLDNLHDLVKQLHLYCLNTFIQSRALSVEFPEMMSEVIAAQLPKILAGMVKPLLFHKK
# [4] = target: T3, Glucocorticoid receptor (Homo sapiens) (UniProt P04150); assay: (§1) Antagonist activity at glucocorticoid receptor by transactivation assay; type: functional
# T3 sequence (whole entry): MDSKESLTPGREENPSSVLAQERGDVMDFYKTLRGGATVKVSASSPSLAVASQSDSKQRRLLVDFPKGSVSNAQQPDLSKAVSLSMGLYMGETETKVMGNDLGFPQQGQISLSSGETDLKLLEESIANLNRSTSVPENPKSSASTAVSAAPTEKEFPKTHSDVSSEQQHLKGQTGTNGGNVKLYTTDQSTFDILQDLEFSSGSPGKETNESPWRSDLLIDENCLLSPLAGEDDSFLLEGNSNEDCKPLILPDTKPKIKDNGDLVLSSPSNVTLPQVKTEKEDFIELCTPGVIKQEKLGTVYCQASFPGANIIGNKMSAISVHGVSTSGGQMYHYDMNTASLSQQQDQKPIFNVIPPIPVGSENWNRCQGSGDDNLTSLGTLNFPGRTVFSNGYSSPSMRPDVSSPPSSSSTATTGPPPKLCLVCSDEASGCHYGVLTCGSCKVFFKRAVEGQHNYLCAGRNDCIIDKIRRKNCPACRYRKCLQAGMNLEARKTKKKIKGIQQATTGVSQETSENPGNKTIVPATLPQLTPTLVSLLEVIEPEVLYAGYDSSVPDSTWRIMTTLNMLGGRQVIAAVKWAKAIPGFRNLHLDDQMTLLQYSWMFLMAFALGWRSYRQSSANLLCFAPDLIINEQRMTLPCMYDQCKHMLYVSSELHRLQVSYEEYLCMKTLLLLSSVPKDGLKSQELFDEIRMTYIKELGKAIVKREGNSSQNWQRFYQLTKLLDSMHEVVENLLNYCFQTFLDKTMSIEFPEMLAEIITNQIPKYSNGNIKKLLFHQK
# [5] = target: T4, Mineralocorticoid receptor (Homo sapiens) (UniProt P08235); assay: Antagonist activity at mineralocorticoid receptor by transactivation assay; type: functional
# T4 sequence (whole entry): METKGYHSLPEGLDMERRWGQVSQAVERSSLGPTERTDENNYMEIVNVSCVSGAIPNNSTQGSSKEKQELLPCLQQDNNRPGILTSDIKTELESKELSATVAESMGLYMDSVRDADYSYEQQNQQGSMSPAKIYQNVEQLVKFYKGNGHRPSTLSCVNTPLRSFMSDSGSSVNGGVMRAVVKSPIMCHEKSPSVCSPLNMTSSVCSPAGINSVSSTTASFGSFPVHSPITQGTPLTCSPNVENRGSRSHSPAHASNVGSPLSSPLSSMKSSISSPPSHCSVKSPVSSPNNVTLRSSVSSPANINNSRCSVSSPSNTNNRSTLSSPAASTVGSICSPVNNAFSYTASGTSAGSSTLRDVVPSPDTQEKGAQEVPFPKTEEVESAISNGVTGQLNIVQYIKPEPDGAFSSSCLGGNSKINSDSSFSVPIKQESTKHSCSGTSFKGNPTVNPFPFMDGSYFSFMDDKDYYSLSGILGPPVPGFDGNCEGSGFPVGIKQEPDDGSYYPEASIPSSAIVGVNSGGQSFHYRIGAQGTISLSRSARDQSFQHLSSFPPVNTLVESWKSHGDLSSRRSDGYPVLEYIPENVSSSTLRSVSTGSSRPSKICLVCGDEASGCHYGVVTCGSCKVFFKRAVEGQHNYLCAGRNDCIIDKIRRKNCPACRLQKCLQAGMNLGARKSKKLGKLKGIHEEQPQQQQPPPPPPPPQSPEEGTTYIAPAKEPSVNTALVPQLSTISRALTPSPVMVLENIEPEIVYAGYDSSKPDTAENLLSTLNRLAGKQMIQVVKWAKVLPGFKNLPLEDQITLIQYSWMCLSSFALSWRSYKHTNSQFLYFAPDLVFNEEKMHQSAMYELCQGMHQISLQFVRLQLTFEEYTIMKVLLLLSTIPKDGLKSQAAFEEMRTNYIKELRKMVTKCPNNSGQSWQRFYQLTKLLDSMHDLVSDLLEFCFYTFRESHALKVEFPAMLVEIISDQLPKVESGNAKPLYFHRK
# [6] = target: T2, Progesterone receptor (Homo sapiens); assay: Agonist activity at progesterone receptor by transactivation assay; type: functional
# [7] = target: T3, Glucocorticoid receptor (Homo sapiens); assay: Agonist activity at glucocorticoid receptor by transactivation assay; type: functional
# [8] = target: T4, Mineralocorticoid receptor (Homo sapiens); assay: Agonist activity at mineralocorticoid receptor by transactivation assay; type: functional
# [9] = test system: Rattus norvegicus; assay: Effect on levator ani muscle weight maintenance in 2-week castrated mature rat model at 10 mg/kg; type: functional, organism-based; design: dose 10 mg/kg
# [10] = test system: Rattus norvegicus; assay: Reduced activity on ventral prostate weight in 2-week castrated mature rat model at 100 mg/kg; type: functional, organism-based; design: dose 100 mg/kg; conditions: Prostate gland
# [11] = target: T5, Glucocorticoid receptor (Homo sapiens, UniProt P04150); assay: as §1; type: functional
# T5 sequence (P04150 whole entry): T3 sequence (whole entry)
SMILES,EC50 [1] [nM],IC50 [2] [µM],other results
O=c1cc(C(F)(F)F)c2c3c(ccc2[nH]1)N(CC(F)(F)F)[C@H](Cc1ccccc1)CO3,43,> 10,–
CC[C@@H]1COc2c(ccc3[nH]c(=O)cc(C(F)(F)F)c23)N1CC(F)(F)F,1,> 10,Efficacy [3]: 94%; Efficacy [4]: 98%; Activity [5]: inactive; Activity [6]: inactive; Activity [7]: inactive; Activity [8]: inactive; Activity [9]: Active; Activity [10]: Active
O=c1cc(C(F)(F)F)c2c3c(ccc2[nH]1)N[C@H](c1ccccc1)CO3,> 10000,1.48,–
C[C@@H]1COc2c(ccc3[nH]c(=O)cc(C(F)(F)F)c23)N1C,> 10000,–,–
O=c1cc(C(F)(F)F)c2c3c(ccc2[nH]1)N(CC1CC1)[C@H](c1ccccc1)CO3,> 10000,0.045,–
O=c1cc(C(F)(F)F)c2c3c(ccc2[nH]1)N(CC1CC1)C(c1ccccc1)CO3 (stereo not given),3.5,> 10,–
CC[C@@H]1COc2c(ccc3[nH]c(=O)cc(C(F)(F)F)c23)N1CC,–,> 10,–
CC[C@@H]1COc2c(ccc3[nH]c(=O)cc(C(F)(F)F)c23)N1C,> 10000,–,–
CCCN1c2ccc3[nH]c(=O)cc(C(F)(F)F)c3c2OC[C@H]1C,406,–,–
CC[C@@H]1COc2c(ccc3[nH]c(=O)cc(C(F)(F)F)c23)N1CC(C)(C)O,300,> 10,–
O=c1cc(C(F)(F)F)c2c3c(ccc2[nH]1)NCCO3,> 10000,1.5,–
CCC[C@@H]1COc2c(ccc3[nH]c(=O)cc(C(F)(F)F)c23)N1,> 10000,0.113,–
CC(C)[C@@H]1COc2c(ccc3[nH]c(=O)cc(C(F)(F)F)c23)N1C,276,–,–
C=CCN1c2ccc3[nH]c(=O)cc(C(F)(F)F)c3c2OC[C@H]1CC,51,> 10,–
C=CCN1c2ccc3[nH]c(=O)cc(C(F)(F)F)c3c2OC[C@H]1C(C)C,–,> 10,–
CCN1c2ccc3[nH]c(=O)cc(C(F)(F)F)c3c2OC[C@H]1C,420,–,–
CC[C@@H]1COc2c(ccc3[nH]c(=O)cc(C(F)(F)F)c23)N1CC(C)C,227,> 10,–
C[C@@H]1COc2c(ccc3[nH]c(=O)cc(C(F)(F)F)c23)N1CC(F)(F)F,5.4,> 10,Efficacy [3]: 40%; Efficacy [4]: 53%; IC50 [11]: 3.2 µM; Activity [5]: inactive; Activity [6]: inactive; Activity [7]: inactive; Activity [8]: inactive
CCCN1c2ccc3[nH]c(=O)cc(C(F)(F)F)c3c2OC[C@H]1CC,394,> 10,–
O=c1cc(C(F)(F)F)c2c3c(ccc2[nH]1)N(CC1CC1)[C@@H](c1ccccc1)CO3,18,> 10,–
CCN1c2ccc3[nH]c(=O)cc(C(F)(F)F)c3c2OC[C@H]1C(C)C,–,> 10,–
O=c1cc(C(F)(F)F)c2c3c(ccc2[nH]1)N(CC(F)(F)F)CCO3,190,–,–
CC(C)[C@@H]1COc2c(ccc3[nH]c(=O)cc(C(F)(F)F)c23)N1CC(F)(F)F,20,> 10,–
CC[C@@H]1COc2c(ccc3[nH]c(=O)cc(C(F)(F)F)c23)N1,> 10000,0.084,Efficacy [3]: 42%; Activity [5]: inactive; Activity [6]: inactive; Activity [7]: inactive; Activity [8]: inactive
CC(C)C[C@@H]1COc2c(ccc3[nH]c(=O)cc(C(F)(F)F)c23)N1CC(F)(F)F,98,–,–
